Assay results published in patent US20170182108A1, “FERMENTED FOOD EXTRACT COMPOSITION” (priority 2014, published 2017).
Where two headings read alike, the source gives them in different places.

Assays:
[1] = tested on: thoracic aorta specimens of SHRs; experiment: measurement test of isometric tension in blood vessels (vasodilatory effect on phenylephrine-constricted ring specimens); format: cell-based, rat (spontaneously hypertensive rat, SHR); design: dilation rate: dose or concentration left out as unconfirmed; conditions: for concentration from which a vasodilatory effect / dilation reaction is shown: cumulative addition
Description: In the examination of each condition, concentration of the active ingredient was checked by identifying fractions showing vasodilatory effect by measurement test of isometric tension in blood vessels at each purification stage.
Thoracic aorta used for the test was removed from a male 10-12 week-old SHR; after removal of the connective tissue, it was cut into a length 2-3 mm to produce ring specimens. The resulting ring specimens were attached to an organ bus filled with Krebs solution of 37° C. (119 mM NaCl/4.7 mM KCl/1.1 mM KH2PO4/1.2 mM MgSO4/25 mM NaHCO3, pH 7.4) in which a mixed gas of 95% O2-5% CO2 was aerated, then a static tension of 1.5 g was applied (UFER UC-05A; Iwashiya Kishimoto Ika Sangyo K.K., Kyoto). Vascular tension was measured by UFER UM-203 transducer (Iwashiya Kishimoto Ika Sangyo). After 60-min incubation from the attachment, the ring specimens were constricted using a vasoconstrictor phenylephrine (final concentration of 0.30 μM). To the constricted ring specimens, commercially available acetylcholine, that is an endothelium-dependent vasodilator (final concentration of 100 μM) was added, and presence/absence of vascular endothelium was determined by presence/absence of vasodilatory effect. Then, the ring specimens were washed with Krebs solution to remove the drugs, incubated at static tension for 10 min, and again constricted by 0.30 μM phenylephrine.

[2] = tested on: systolic blood pressure of SHRs; experiment: single oral administration test to SHRs (blood pressure by tail cuff method); format: in vivo, rat (spontaneously hypertensive rat; conditions: single oral 10^−11 mol/kg, SHR; for maximum decrease in systolic blood pressure: 9 h after administration, compared to the control group; for blood pressure effect compared to the control group: measured 3, 6, 9 and 24 h after administration
Description: Animal experiments were carried out according to the animal experiment guidelines of Shinshu University. In the present study, spontaneously hypertensive rats of 10-13 week-old males (SHR/NCrlCrlj, Charles River Laboratories Japan, Yokohama) were used as an experimental animal. SHRs were bred in individual cages in a breeding room controlled with a light-dark cycle of […] and a room temperature of 22-23° C. In acclimation breeding, rat standard diet (MF; Charles River Laboratories) and tap water were fed ad libitum. SHRs are a rat strain that has been isolated in 1963 by selection mating from Wistar-Kyoto rats that had been bred in the animal experimentation center of Kyoto University. They are referred to as spontaneously hypertensive rats or essential hypertensive rats; while systolic blood pressure of the separation maternal. Wistar-Kyoto rats is approximately 135 mmHg for mature males and approximately 132 mmHg for mature females, blood pressure of almost all the SHRs becomes 150 mmHg or higher at 2 months from the birth, and reaches almost a maximum value at 4-5 months, with many of the values showing 180-210 mmHg. In general, as a model animal of essential hypertension that s said to be account for approximately 90% of the hypertension in humans, SHRs have been used to elucidate pharmacological effects and food functions, and a mechanism of blood pressure rise.
Single oral administration test was carried out using male 12-week-old SHRs with a body weight of 280-320 g. After acclimation breeding for 1 week, the rats were fasted for 12 h, and a sample was given to the rats by a single oral administration. The sample to be administered was dissolved in pure water, and given by a single oral administration with a dose of 10^−11 mol/kg (b.w.) to each 6 SHRs. Sample aqueous solutions of purified acetylcholine, propionylcholine and butyrylcholine were acidic, with a pH of 4.7, 4,3, and 4.4, respectively. To the control group, pure water was administered. Changes in the systolic blood pressure and diastolic blood pressure were measured using non-invasive blood pressure measuring instrument Softron BP-98A (Softron Co., Ltd., Tokyo) by tail cuff method, before administration and at 3, 6, 9, and 24 h after administration. Results of the single oral administration test of purified acetylcholine, propionylcholine and butyrylcholine were shown in FIG. 7.

| Compound | EC50 ([1]; Rattus norvegicus, hydrochloride salt, summary sentence b69, read-out: EC50 of vasodilatory effect (unit inferred)) [nM] | EC50 ([1]; Rattus norvegicus, hydrochloride salts, cumulative addition 10^−9 to 10^−4 M, read-out: EC50 of vasodilatory effect) [nM] | maximum dilation rate ([1]; at 10^−6 M) [%] | dilation rate ([1]; at the addition) [%] | concentration from which a vasodilatory effect / dilation reaction is shown ([1]; hydrochloride salts) | maximum decrease in systolic blood pressure [2] [mmHg] | dilation ([1]; at the addition of 10^−4 M) [%] | blood pressure effect compared to the control group [2] | maximum dilation rate ([1]; at 10^−4 M) [%] | EC50 ([1]; hydrochloride salts, cumulative addition 10^−9 to 10^−4 M, read-out: EC50 of vasodilatory effect) [nM] |
| --- | --- | --- | --- | --- | --- | --- | --- | --- | --- | --- |
| CC(=O)OCC[N+](C)(C)C [acetylcholine] | 27.2 | 27.2 | 89.9 | 1.52 | 10^−9 M | 24.7 | – | – | – | – |
| CCCC(=O)OCC[N+](C)(C)C [butyrylcholine] | – | – | – | – | – | – | 7.14 | no significant decrease in blood pressure | – | – |
| CCC(=O)OCC[N+](C)(C)C [propionylcholine] | – | – | – | – | 10^−7 M | 8.05 | – | significant vasodilatory effect | 95.2 | 2270 |
